# Experimental data reported in publication PMC6694038, “Pharmacogenomic–pharmacokinetic study of selective estrogen-receptor modulators with intra-patient dose escalation in breast cancer” (Breast Cancer (Tokyo, Japan), 2019).
# Entries after “also recorded” stand apart in the source; their conditions may differ. Where two headings read alike, the source gives them in different places.
# Experiments:
# [1] = Source text: Written informed consent was obtained from all the participants included in the study. The patient enrolment period for the screening study started on February 1, 2009 and ended on July 31, 2012.
# We obtained data on compliance and the grade of hot flush as defined by the Common Terminology Criteria for Adverse Events v3.0.
# The p value was not calculated if there were no events.
# [2] = Plasma concentrations of TAM, TOR and their metabolites by LC–MS/MS (screening study); conditions: TOR 120 mg for up to 6 months
# [3] = weighting of plasma concentration; cited from earlier work
# [4] = Total activity: sum of plasma concentrations of each active metabolite adjusted by in vitro activity; format: in vivo, breast cancer patients
# Method: Blood samples for PK analysis were obtained from patients who had good compliance with taking medications 2–4 h after taking anti-estrogens. […] The interday variability and intraday variability for all compounds are within 15%.
# [5] = TOR versus TAM, seven randomized-controlled trials; cited from earlier work
compound,measurement,setting,value
"CN(C)CCOc1ccc(/C(=C(/CCCl)c2ccccc2)c2ccccc2)cc1 [TOR, toremifene]","Hyperglycemia ≧ G2, % of patients",[1]; TOR 120 mg (1),0 (0) %
same,"Hyperglycemia ≧ G2, patients",[1]; TOR 120 mg (1),0 (0)
same,"LDH elevation All grade, % of patients",[1]; TOR 120 mg (1),7.1%
same,"LDH elevation All grade, patients",[1]; TOR 120 mg (1),1
same,"LDH elevation ≧ G2, % of patients",[1]; TOR 120 mg (1),7.1%
same,"LDH elevation ≧ G2, patients",[1]; TOR 120 mg (1),1
same,"LDL elevation All grade, % of patients",[1]; TOR 120 mg (1),14.3%
same,"LDL elevation All grade, patients",[1]; TOR 120 mg (1),1
same,"LDL elevation ≧ G2, % of patients",[1]; TOR 120 mg (1),0 (0) %
same,"LDL elevation ≧ G2, patients",[1]; TOR 120 mg (1),0 (0)
same,"Low PLT All grade, % of patients",[1]; TOR 120 mg (1),0 (0) %
same,"Low PLT All grade, patients",[1]; TOR 120 mg (1),0 (0)
same,"Low PLT ≧ G2, % of patients",[1]; TOR 120 mg (1),0 (0) %
same,"Low PLT ≧ G2, patients",[1]; TOR 120 mg (1),0 (0)
same,"Low WBC All grade, % of patients",[1]; TOR 120 mg (1),11.1%
same,"Low WBC All grade, patients",[1]; TOR 120 mg (1),1
same,"Low WBC ≧ G2, % of patients",[1]; TOR 120 mg (1),11.1%
same,"Low WBC ≧ G2, patients",[1]; TOR 120 mg (1),1
same,"T. Bil elevation All grade, % of patients",[1]; TOR 120 mg (1),0 (0) %
same,"T. Bil elevation All grade, patients",[1]; TOR 120 mg (1),0 (0)
same,"T. Bil elevation ≧ G2, % of patients",[1]; TOR 120 mg (1),0 (0) %
same,"T. Bil elevation ≧ G2, patients",[1]; TOR 120 mg (1),0 (0)
same,"TG elevation All grade, % of patients",[1]; TOR 120 mg (1),0 (0) %
same,"TG elevation All grade, patients",[1]; TOR 120 mg (1),0 (0)
same,"TG elevation ≧ G2, % of patients",[1]; TOR 120 mg (1),0 (0) %
same,"TG elevation ≧ G2, patients",[1]; TOR 120 mg (1),0 (0)
same,"Weight, max",[1]; TOR 120 mg (1),73.5 kg
same,"Weight, mean",[1]; TOR 120 mg (1),53.4 kg
same,"Weight, median",[1]; TOR 120 mg (1),51.0 kg
same,"Weight, min",[1]; TOR 120 mg (1),45.0 kg
same,"Cre elevation All grade, % of patients",[1]; TOR 120 mg (2),16.7%
same,"Cre elevation All grade, patients",[1]; TOR 120 mg (2),2
same,"Cre elevation ≧ G2, % of patients",[1]; TOR 120 mg (2),0 (0) %
same,"Cre elevation ≧ G2, patients",[1]; TOR 120 mg (2),0 (0)
same,"GOT elevation All grade, % of patients",[1]; TOR 120 mg (2),8.3%
same,"GOT elevation All grade, patients",[1]; TOR 120 mg (2),1
same,"GOT elevation ≧ G2, % of patients",[1]; TOR 120 mg (2),0 (0) %
same,"GOT elevation ≧ G2, patients",[1]; TOR 120 mg (2),0 (0)
same,"GPT elevation All grade, % of patients",[1]; TOR 120 mg (2),8.3%
same,"GPT elevation All grade, patients",[1]; TOR 120 mg (2),1
same,"GPT elevation ≧ G2, % of patients",[1]; TOR 120 mg (2),0 (0) %
same,"GPT elevation ≧ G2, patients",[1]; TOR 120 mg (2),0 (0)
same,"Hot flush G0, % of patients",[1]; TOR 120 mg (2),75.0%
same,"Hot flush G0, patients",[1]; TOR 120 mg (2),9
same,"Hot flush G1, % of patients",[1]; TOR 120 mg (2),8.3%
same,"Hot flush G1, patients",[1]; TOR 120 mg (2),1
same,"Hot flush G2, % of patients",[1]; TOR 120 mg (2),16.7%
same,"Hot flush G2, patients",[1]; TOR 120 mg (2),2
same,"Hyperglycemia All grade, % of patients",[1]; TOR 120 mg (2),7.1%
same,"Hyperglycemia All grade, patients",[1]; TOR 120 mg (2),1
same,"Hyperglycemia ≧ G2, % of patients",[1]; TOR 120 mg (2),7.1%
same,"Hyperglycemia ≧ G2, patients",[1]; TOR 120 mg (2),1
same,"LDH elevation All grade, % of patients",[1]; TOR 120 mg (2),0 (0) %
same,"LDH elevation All grade, patients",[1]; TOR 120 mg (2),0 (0)
same,"LDH elevation ≧ G2, % of patients",[1]; TOR 120 mg (2),0 (0) %
same,"LDH elevation ≧ G2, patients",[1]; TOR 120 mg (2),0 (0)
same,"LDL elevation All grade, % of patients",[1]; TOR 120 mg (2),10.0%
same,"LDL elevation All grade, patients",[1]; TOR 120 mg (2),1
same,"LDL elevation ≧ G2, % of patients",[1]; TOR 120 mg (2),0 (0) %
same,"LDL elevation ≧ G2, patients",[1]; TOR 120 mg (2),0 (0)
same,"Low PLT All grade, % of patients",[1]; TOR 120 mg (2),0 (0) %
same,"Low PLT All grade, patients",[1]; TOR 120 mg (2),0 (0)
same,"Low PLT ≧ G2, % of patients",[1]; TOR 120 mg (2),0 (0) %
same,"Low PLT ≧ G2, patients",[1]; TOR 120 mg (2),0 (0)
same,"Low WBC All grade, % of patients",[1]; TOR 120 mg (2),8.3%
same,"Low WBC All grade, patients",[1]; TOR 120 mg (2),1
same,"Low WBC ≧ G2, % of patients",[1]; TOR 120 mg (2),8.3%
same,"Low WBC ≧ G2, patients",[1]; TOR 120 mg (2),1
same,"T. Bil elevation All grade, % of patients",[1]; TOR 120 mg (2),0 (0) %
same,"T. Bil elevation All grade, patients",[1]; TOR 120 mg (2),0 (0)
same,"T. Bil elevation ≧ G2, % of patients",[1]; TOR 120 mg (2),0 (0) %
same,"T. Bil elevation ≧ G2, patients",[1]; TOR 120 mg (2),0 (0)
same,"TG elevation All grade, % of patients",[1]; TOR 120 mg (2),0 (0) %
same,"TG elevation All grade, patients",[1]; TOR 120 mg (2),0 (0)
same,"TG elevation ≧ G2, % of patients",[1]; TOR 120 mg (2),0 (0) %
same,"TG elevation ≧ G2, patients",[1]; TOR 120 mg (2),0 (0)
same,"Weight, max",[1]; TOR 120 mg (2),73.0 kg
same,"Weight, mean",[1]; TOR 120 mg (2),53.6 kg
same,"Weight, median",[1]; TOR 120 mg (2),51.1 kg
same,"Weight, min",[1]; TOR 120 mg (2),46.0 kg
same,Body weight during dose escalation,[1]; TOR 40 to 120 mg,remained stable
same,Hot flushes and GOT/GPT elevation with an increase in the dose,[1]; TOR 40 to 120 mg,only a few patients developed hot flushes and GOT/GPT elevation
same,Concentration on continuing the same dose,[2],remained constant
same,In vitro activity factor in the total activity of TOR (TOR = 1.0),[3],1.0
same,Total activity on continuing the same dose,"[4]; TOR 120 mg for up to 6 months, trend for decrease after 24 weeks",remained constant
same,Change of total activity after increasing the dose,"[4]; TOR from 40 to 120 mg, p < 0.01",increased significantly; also recorded: increased by at least twofold
same,Efficacy in patients with advanced breast cancer,[5],equally effective
